Assay [1] deals with Urokinase-type plasminogen activator (Homo sapiens, UniProt P00749). As to the kind of experiment: Inhibition of human uPA by chromogenic assay using Cbz-Val-Gly-Arg-pNA as chromogenic substrate.
The nature of assay [2]: Inhibition of bovine trypsin by chromogenic assay using Bzl-L-Arg-pNA as chromogenic substrate. Also noted: species or system Bos taurus.
Assay [3] can be described thus: Selectivity for trypsin over uPA by chromogenic assay.

IC50 and Ratio IC50 data for ten compounds are collected here from ChEMBL document CHEMBL1147713, “Inhibition of trypsin and urokinase by Cbz-amino(4-guanidinophenyl)methanephosphonate aromatic ester derivatives: the influence of the ester group on their biological activity” (Bioorg Med Chem Lett, 2006).

By IC50 is commonly meant the concentration that gives 50% inhibition.

Each structure is given as a SMILES string.

As to `N=C(N)Nc1ccc(C(NC(=O)OCc2ccccc2)P(=O)(Oc2ccc3ccccc3c2)Oc2ccc3ccccc3c2)cc1.O=C(O)C(F)(F)F` (centres undefined), the concentration for half-maximal inhibition (IC50) is 0.455 µM in assay [1] and “Not Active” in assay [2].
Consider `CS(=O)(=O)c1ccc(OP(=O)(Oc2ccc(S(C)(=O)=O)cc2)C(NC(=O)OCc2ccccc2)c2ccc(NC(=N)N)cc2)cc1` (centres undefined), for which the half-maximal inhibitory concentration (IC50) in assay [1] was determined as 0.053 µM; in assay [2] (read-out: IC50), 23 µM. Besides, in assay [3], the Ratio IC50 turned out to be 434.
Regarding `CSc1ccc(OP(=O)(Oc2ccc(SC)cc2)C(NC(=O)OCc2ccccc2)c2ccc(NC(=N)N)cc2)cc1` (centres undefined), the IC50 was determined as 0.026 µM in assay [1] and 0.0087 µM in assay [2] (read-out: IC50). The Ratio IC50 in assay [3] is 0.33.
With `CC(C)(C)c1ccc(OP(=O)(Oc2ccc(C(C)(C)C)cc2)C(NC(=O)OCc2ccccc2)c2ccc(NC(=N)N)cc2)cc1` (centres undefined), the IC50 in assay [1] was 0.098 µM; in assay [2] (read-out: IC50) it was 0.088 µM. Also, the Ratio IC50 in assay [3] is 0.9.
With `COc1ccc(OP(=O)(Oc2ccc(OC)cc2)C(NC(=O)OCc2ccccc2)c2ccc(NC(=N)N)cc2)cc1` (centres undefined), the half-maximal inhibitory concentration (IC50) in assay [1] stood at 2.6 µM; in assay [2] (read-out: IC50), 0.251 µM. For the same compound, in assay [3], the Ratio IC50 was found to be 0.1.
Consider `Cc1ccc(OP(=O)(Oc2ccc(C)cc2)C(NC(=O)OCc2ccccc2)c2ccc(NC(=N)N)cc2)cc1` (centres undefined), for which the IC50 in assay [1] was found to be 0.37 µM; in assay [2] (read-out: IC50), 0.176 µM. Moreover, the Ratio IC50 in assay [3] worked out at 0.48.
Take `CC(C)c1ccc(OP(=O)(Oc2ccc(C(C)C)cc2)C(NC(=O)OCc2ccccc2)c2ccc(NC(=N)N)cc2)cc1` (centres undefined): the half-inhibitory concentration (IC50) in assay [1] is 0.208 µM; in assay [2] (read-out: IC50) it was 0.061 µM. The Ratio IC50 in assay [3] was found to be 0.29.
On to `CCc1ccc(OP(=O)(Oc2ccc(CC)cc2)C(NC(=O)OCc2ccccc2)c2ccc(NC(=N)N)cc2)cc1` (centres undefined), for which the IC50 in assay [1] came out at 7.8 µM; in assay [2] (read-out: IC50), 0.017 µM. Also, the Ratio IC50 in assay [3] stood at 0.002.
For `CC(C)(C)CC(C)(C)c1ccc(OP(=O)(Oc2ccc(C(C)(C)CC(C)(C)C)cc2)C(NC(=O)OCc2ccccc2)c2ccc(NC(=N)N)cc2)cc1` (centres undefined), the IC50 in assay [1] worked out at 0.204 µM; in assay [2] (read-out: IC50), 2.31 µM. The Ratio IC50 in assay [3] is 11.3.
For the compound `N=C(N)Nc1ccc(C(NC(=O)OCc2ccccc2)P(=O)(Oc2ccccc2)Oc2ccccc2)cc1` (centres undefined), the IC50 in assay [1] worked out at 0.532 µM; in assay [2] (read-out: IC50), 0.112 µM. Besides, the Ratio IC50 in assay [3] came out at 0.21.
